For the experiment, the target named is T1, acyl-CoA:cholesterol acyltransferase (ACAT) (Oryctolagus cuniculus, UniProt G1SFD9).
T1 construct: tissue preparation containing rabbit intestinal microsomes; from tissue; host or cells: rabbit intestinal microsomes
T1 sequence (G1SFD9 1-524): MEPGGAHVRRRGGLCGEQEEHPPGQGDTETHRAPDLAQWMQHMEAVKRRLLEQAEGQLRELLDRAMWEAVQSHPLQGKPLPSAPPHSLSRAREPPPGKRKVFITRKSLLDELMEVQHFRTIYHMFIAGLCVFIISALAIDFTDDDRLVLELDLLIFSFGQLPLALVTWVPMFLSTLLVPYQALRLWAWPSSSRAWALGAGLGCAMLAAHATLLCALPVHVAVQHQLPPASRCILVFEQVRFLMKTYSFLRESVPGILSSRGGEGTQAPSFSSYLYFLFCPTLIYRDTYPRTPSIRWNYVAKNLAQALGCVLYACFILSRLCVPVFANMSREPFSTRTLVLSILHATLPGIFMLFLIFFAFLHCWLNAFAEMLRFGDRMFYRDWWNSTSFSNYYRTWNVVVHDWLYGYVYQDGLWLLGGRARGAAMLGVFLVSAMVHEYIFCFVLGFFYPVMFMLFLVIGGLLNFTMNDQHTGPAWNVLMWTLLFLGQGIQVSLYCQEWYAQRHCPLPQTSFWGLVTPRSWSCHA
Kind of experiment: in vitro ACAT inhibition: radiolabeled cholesterol oleate formed from radiolabeled oleic acid in rabbit intestinal microsomes. As to conditions: tissue preparation containing rabbit intestinal microsomes; read-out: IC50 value, i.e. the concentration of test compound required to inhibit 50% expression of the enzyme. The format is biochemical. Here is the method: The ability of representative compounds of the present invention to inhibit ACAT was measured using an in vitro test more fully described in Field, F. J. and Salone, R. G., Biochemica et Biophysica 712: 557-570 (1982). The test assesses the ability of a test compound to inhibit the acylation of cholesterol by oleic acid by measuring the amount of radiolabeled cholesterol oleate formed from radiolabeled oleic acid in a tissue preparation containing rabbit intestinal microsomes.

pIC50: −log10 of the molar value.

As to `CCCCCCCCCCCC(=O)N[C@@H](CNC(=O)Oc1c(C(C)C)cccc1C(C)C)c1ccccc1` [Example 1], the pIC50 was 9.29.

(Values after US5087726A, “Carbamate ACAT inhibitors” (Warner-Lambert Company, priority 1990, dated 1992).)
